The source of these data is patent US10689343B2, “Inhibitors of tryptophan 2,3-dioxygenase” (NETHERLANDS TRANSLATIONAL RESEARCH CENTER B.V., priority 2016, dated 2020).

pIC50: −log10 of the molar value. Where “and” joins values, the source holds several entries; their conditions need not be identical. Equal values may be shown once. Read-outs that look alike come from different tables or passages of the source.

Data set [1] concerns the target T1, CYP3A4 (Homo sapiens, UniProt P08684).
Text: (§1) To determine the inhibitory potency of compounds on CYP3A4 enzyme, the P450-Glo CYP3A4 luciferin isopropylacetal (Luc-IP) assay was used (Promega, Madison, Wis., USA, Cat. No. V9920). The assay makes use of a luminogenic isopropylacetal (IPA) substrate that is a derivative from beetle luciferin, a substrate of luciferase enzymes. The IPA substrate is converted by CYP3A4 to luciferin, which in turn reacts with luciferase to produce an amount of light that is directly proportional to the activity of CYP3A4. Compounds were serially diluted in DMSO and finally in 400 mM K2HPO4, pH 7.4. 5 μl of compound solution and 5 μl of CYP3A4/substrate solution were combined in the well of a white 384-well Optiplate (Perkin Elmer). The DMSO concentration in the assay was 0.1%. After incubation for 10 minutes at room temperature in the dark, 10 μl of NADPH regeneration system was added and incubation was continued for 10 min. Then, 20 μl of Luciferin Detection Reagent was added to stop the reaction, and incubation was continued for another 20 min. Luminescence was measured on an Envision multimode reader and IC50 values were calculated using XLfit™. […] Instead of in a 96-well plate, the assay was performed in 384-well white Perkin Elmer Optiplate (cat. no. 6007290).
Data set [2] addresses T2, CYP2D6 (Homo sapiens, UniProt P10635).
Data set [3] addresses T1, CYP3A4. The data set is described as follows: P450-Glo CYP3A4 luciferin isopropylacetal (Luc-IP) assay.
Text: as §1
The target of data set [4] is T3, TDO in SW48 colorectal carcinoma cells (Homo sapiens, UniProt P48775).
T3 construct: Endogenous expression of TDO has been determined in a variety of cancer cell lines; host or cells: SW48 colorectal carcinoma cells
T3 sequence (P48775 whole entry): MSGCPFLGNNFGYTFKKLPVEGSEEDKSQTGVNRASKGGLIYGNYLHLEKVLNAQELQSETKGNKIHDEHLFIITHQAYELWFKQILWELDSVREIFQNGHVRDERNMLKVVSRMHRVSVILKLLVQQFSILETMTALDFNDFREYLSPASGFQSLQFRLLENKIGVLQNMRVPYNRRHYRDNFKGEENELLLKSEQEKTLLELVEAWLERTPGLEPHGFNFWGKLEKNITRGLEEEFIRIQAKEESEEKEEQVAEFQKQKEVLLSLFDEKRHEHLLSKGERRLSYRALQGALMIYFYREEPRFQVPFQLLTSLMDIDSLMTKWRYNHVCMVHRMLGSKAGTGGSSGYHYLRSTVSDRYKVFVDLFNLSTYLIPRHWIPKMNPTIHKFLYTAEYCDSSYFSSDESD
The data set can be described thus: Cell-based assay for TDO in SW48 colorectal carcinoma cells (NFK GreenScreen). The note with it: 18 hours with L-tryptophan.

A further data set deals with T4, Recombinant TDO (Homo sapiens, UniProt P48775).
T4 construct: Recombinant TDO (Seegers, N., et al.) and all other assay components were diluted in TDO reaction buffer
T4 sequence (P48775 whole entry): as above
The data set is described as follows: Biochemical assay for TDO (NFK GreenScreen). The note with it: 50 nM TDO, 200 μM L-tryptophan. The essentials: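 Recombinant human TDO (50 nM) preincubated with compound 60 min at room temperature in 100 mM NaH2PO4 pH 7.0, 0.02% Tween-20, with ascorbic acid. Reaction then run 15 min with 200 μM L-tryptophan (final), 0.3% DMSO. NFK product detected by NFK Green fluorescence after 3 h at 37° C; IC50 derived.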

In data set [5] the target is T2, CYP2D6. The data set is described as follows: P450-Glo CYP2D6 Luc-IP assay.
Data set [6] has as its target T5, TDO expressed in mouse tumor cells (Mus musculus, UniProt P48776).
T5 construct: host or cells: mouse tumor cells
As to conditions: immunocompetent mice; cited from earlier work.

For data set [7] the following is noted: mice treated with LM10; cited from earlier work.

T2 sequence (P10635 whole entry): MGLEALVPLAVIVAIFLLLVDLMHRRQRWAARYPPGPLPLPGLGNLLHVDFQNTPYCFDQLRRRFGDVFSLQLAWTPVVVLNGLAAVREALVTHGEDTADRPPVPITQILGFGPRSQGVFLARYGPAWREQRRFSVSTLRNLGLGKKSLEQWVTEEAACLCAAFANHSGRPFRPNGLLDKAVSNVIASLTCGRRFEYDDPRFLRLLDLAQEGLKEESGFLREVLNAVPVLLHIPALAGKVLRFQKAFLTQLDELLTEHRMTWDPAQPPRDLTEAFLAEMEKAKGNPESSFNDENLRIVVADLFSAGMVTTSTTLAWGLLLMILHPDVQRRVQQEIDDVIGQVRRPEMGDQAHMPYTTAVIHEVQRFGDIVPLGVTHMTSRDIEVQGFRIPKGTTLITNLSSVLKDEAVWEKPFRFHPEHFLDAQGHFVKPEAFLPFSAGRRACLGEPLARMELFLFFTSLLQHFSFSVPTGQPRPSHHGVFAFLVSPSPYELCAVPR
T1 sequence (P08684 whole entry): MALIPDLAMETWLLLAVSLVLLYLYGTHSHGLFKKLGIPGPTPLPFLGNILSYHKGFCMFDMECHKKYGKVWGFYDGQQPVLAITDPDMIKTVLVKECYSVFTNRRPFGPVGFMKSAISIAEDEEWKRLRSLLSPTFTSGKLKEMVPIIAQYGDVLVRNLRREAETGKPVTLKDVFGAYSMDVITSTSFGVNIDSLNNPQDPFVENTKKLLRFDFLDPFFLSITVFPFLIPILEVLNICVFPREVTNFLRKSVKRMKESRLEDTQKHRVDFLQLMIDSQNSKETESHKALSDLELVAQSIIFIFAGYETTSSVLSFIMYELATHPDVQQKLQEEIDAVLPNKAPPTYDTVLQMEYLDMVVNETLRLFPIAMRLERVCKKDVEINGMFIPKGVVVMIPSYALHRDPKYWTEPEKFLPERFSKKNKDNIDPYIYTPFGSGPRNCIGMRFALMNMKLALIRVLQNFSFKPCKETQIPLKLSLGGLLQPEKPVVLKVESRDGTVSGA
T5 sequence (P48776 whole entry): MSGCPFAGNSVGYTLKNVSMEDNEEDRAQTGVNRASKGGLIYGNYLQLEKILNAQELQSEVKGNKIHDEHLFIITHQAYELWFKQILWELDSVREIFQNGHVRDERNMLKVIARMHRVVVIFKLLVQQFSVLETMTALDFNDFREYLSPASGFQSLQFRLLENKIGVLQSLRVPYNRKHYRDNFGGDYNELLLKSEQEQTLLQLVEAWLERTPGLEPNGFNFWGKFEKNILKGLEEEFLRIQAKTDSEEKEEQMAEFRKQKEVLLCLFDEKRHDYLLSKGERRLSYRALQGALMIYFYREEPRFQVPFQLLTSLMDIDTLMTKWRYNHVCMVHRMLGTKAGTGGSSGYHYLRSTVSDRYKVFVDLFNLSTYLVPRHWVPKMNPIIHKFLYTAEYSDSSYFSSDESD

Regarding “N-(3,3-difluorocyclobutyl)-4-(6-fluoro-1H-indol-3-yl)benzamide [Example 114]”, the pIC50 against CYP3A4 [1] and on CYP2D6 [2] was < 5.00 in each case.

In the case of “N-(2-diethylaminoethyl)-4-(6-fluoro-1H-indol-3-yl)benzamide [Example 81]”, the pIC50 (usually −log10 of the IC50, conventionally taken in molar units) is 5.00 to 5.30 at CYP3A4 [1] and < 5.00 at CYP2D6 [2].

“N-[3-(dimethylamino)propyl]-4-(6-fluoro-1H-indol-3-yl)benzamide [Example 8]”: the pIC50 against CYP3A4 [1] and against CYP2D6 [2] was < 5.00 throughout.

On to “N-cyclopropyl-4-(6-fluoro-1H-indol-3-yl)benzamide [Example 86]”, for which the negative-log IC50 (pIC50) against CYP3A4 [1] and at CYP2D6 [2] was < 5.00 throughout.

For the molecule `CCN(CC)CC(C)NC(=O)c1ccc(-c2c[nH]c3cc(F)ccc23)cc1Cl` (stereo not drawn) [Example 73, 2-Chloro-N-[2-(diethylamino)-1-methyl-ethyl]-4-(6-fluoro-1H-indol-3-yl)benzamide], the negative logarithm of the IC50 (pIC50) on CYP3A4 [3] was < 5.00; in data set [4] (read-out: IC50 on TDO in cells), ≥ 6.70; at Recombinant TDO it was > 6.00; at CYP2D6 [5], < 5.00.

With `O=C(NC[C@@H]1CCCN1)c1ccc(-c2c[nH]c3cc(F)ccc23)cc1` [Example 84, 4-(6-Fluoro-1H-indol-3-yl)-N-[[(2S)-pyrrolidin-2-yl]methyl]benzamide], the pIC50 is < 5.00 against CYP3A4 [3], ≥ 6.70 in data set [4] (read-out: IC50 on TDO in cells), > 6.00 at Recombinant TDO and < 5.00 against CYP2D6 [5].

As for `Fc1ccc2c(/C=C/c3nn[nH]n3)c[nH]c2c1` [LM10], the “Effect on TDO-mediated prevention of tumor cell rejection” value in data set [6] was “reverted”. Further, in data set [7], the “Signs of toxicity in the liver or any other organs” value is “did not show any signs of toxicity”.

For `C[C@@H](CO)NC(=O)c1ccc(-c2c[nH]c3cc(F)ccc23)cc1` [Example 15, 4-(6-fluoro-1H-indol-3-yl)-N-[(1S)-2-hydroxy-1-methyl-ethyl]benzamide], the pIC50 on CYP3A4 [3] was < 5.00; in data set [4] (IC50 on TDO in cells), ≥ 6.70; on Recombinant TDO, > 6.00; on CYP2D6 [5], < 5.00.

In the case of `O=C(NC[C@@H]1CCNC1)c1ccc(-c2c[nH]c3cc(F)ccc23)cc1` [Example 95, 4-(6-Fluoro-1H-indol-3-yl)-N-[[(3R)-pyrrolidin-3-yl]methyl]benzamide], the pIC50 against CYP3A4 [3] was < 5.00; in data set [4] (read-out: IC50 on TDO in cells), ≥ 6.30 and 6.30 to 6.70; at Recombinant TDO it was > 6.00; against CYP2D6 [5], < 5.00.

Regarding `CC(=O)NCCNC(=O)c1ccc(-c2c[nH]c3cc(F)ccc23)cc1` [Example 113, N-(2-acetamidoethyl)-4-(6-fluoro-1H-indol-3-yl)benzamide], the pIC50 is < 5.00 against CYP3A4 [3]; ≥ 6.30 and 6.30 to 6.70 in data set [4] (read-out: IC50 on TDO in cells); 5.30 to 6.00 at Recombinant TDO; < 5.00 against CYP2D6 [5].

Consider `O=C(N[C@@H]1CCCC[C@H]1O)c1ccc(-c2c[nH]c3cc(F)ccc23)cc1` [Example 50, 4-(6-Fluoro-1H-indol-3-yl)-N-[(1R,2R)-2-hydroxycyclohexyl]benzamide], for which the pIC50 was < 5.00 against CYP3A4 [3]; ≥ 6.30 and 6.30 to 6.70 in data set [4] (read-out: IC50 on TDO in cells); > 6.00 at Recombinant TDO; < 5.00 on CYP2D6 [5].

As for `COC[C@@H](C)NC(=O)c1ccc(-c2c[nH]c3cc(F)ccc23)cc1` [Example 17, 4-(6-Fluoro-1H-indol-3-yl)-N-[(1R)-2-methoxy-1-methyl-ethyl]benzamide], the negative logarithm of the IC50 (pIC50) was < 5.00 on CYP3A4 [3]; ≥ 6.30 and 6.30 to 6.70 in data set [4] (read-out: IC50 on TDO in cells); > 6.00 on Recombinant TDO; < 5.00 against CYP2D6 [5].

For the molecule `O=C(NCC1(O)CCC1)c1ccc(-c2c[nH]c3cc(F)ccc23)cc1` [Example 62, 4-(6-Fluoro-1H-indol-3-yl)-N-[(1-hydroxycyclobutyl)methyl]benzamide], the pIC50 was 5.00 to 5.30 at CYP3A4 [3]; ≥ 6.30 and 6.30 to 6.70 in data set [4] (read-out: IC50 on TDO in cells); > 6.00 on Recombinant TDO; < 5.00 at CYP2D6 [5].

Turning to `C[C@H]1CNCC[C@H]1C(=O)Nc1ccc(-c2c[nH]c3cc(F)ccc23)cc1` [Example 110, (3R,4R)—N-[4-(6-fluoro-1H-indol-3-yl)phenyl]-3-methyl-piperidine-4-carboxamide], the pIC50 against CYP3A4 [3] is 5.00 to 5.30; in data set [4] (read-out: IC50 on TDO in cells), ≥ 6.30 and 6.30 to 6.70; on Recombinant TDO, > 6.00; at CYP2D6 [5] it was < 5.00.

On to `CC(C)NC(=O)c1ccc(-c2c[nH]c3cc(F)ccc23)cc1` [Example 2, 4-(6-Fluoro-1H-indol-3-yl)-N-isopropyl-benzamide], for which the pIC50 on CYP3A4 [3] was < 5.00; in data set [4] (read-out: IC50 on TDO in cells), ≥ 6.70; on Recombinant TDO, > 6.00; against CYP2D6 [5] it was < 5.00.

As for `O=C(Nc1ccc(-c2c[nH]c3cc(F)ccc23)cc1)C1C2CNCC21` (stereo not drawn) [Example 104, N-[4-(6-fluoro-1H-indol-3-yl)phenyl]-3-azabicyclo[3.1.0]hexane-6-carboxamide], the pIC50 against CYP3A4 [3] is 5.00 to 5.30; in data set [4] (read-out: IC50 on TDO in cells), ≥ 6.30 and 6.30 to 6.70; on Recombinant TDO it was > 6.00; against CYP2D6 [5], < 5.00.
